According to patent publication US9790191B2, “Substituted acylaminopyrimidines as inducers of alpha interferon production” (JANSSEN SCIENCES IRELAND UC, priority 2012, dated 2017):

Key:
[1] = system: IFN-α; assay: Production of IFN-α in vivo after oral administration (murine pan-IFN-α ELISA); parameters: species or system C57BL/6 mice; settings: mice
Method: (§1) Production of IFN-α and Up-Regulation of CXCL10 mRNA In Vivo
(§2) The potential of compounds to induce IFN-α production and CXCL10 mRNA up-regulation in vivo was evaluated after oral administration to C57BL/6 mice. The quantity of IFN-α in systemic circulation was followed over time, using a murine pan-IFN-α ELISA (PBL InterferonSource, ref. 42120). This ELISA recognizes all murine IFN-α subtypes. […] CXCL10 mRNA expression levels were followed by RT-qPCR.
For each compound and dose tested, 3 female C57BL/6J mice, from 6-10 weeks of age, 20-22 g of body weight were tested. Animals were given compound 1 as a single oral dose of 15.5 mg/kg as a 1.55 mg/mL solution in 20% aqueous hydroxypropyl β-cyclodextrin vehicle using a feeding tube. 0.5, 1, 2, 4 and 7 hours after dosing, systemic blood was drawn from the tail vein into K-EDTA containing tubes. Plasma was separated from blood cells by centrifugation at 1500 g, 10 min, 4° C. and stored at −80° C. prior to ELISA analysis. At each time point, the median and standard deviation over the 3 animals was calculated to evaluate the potency of the compound.

[2] = system: CXCL10 mRNA; assay: Up-regulation of CXCL10 mRNA in vivo after oral administration (RT-qPCR); parameters: species or system C57BL/6 mice; settings: mice
Method: as §1, §2
For each compound and dose tested, 3 female C57BL/6J mice, from 6-10 weeks of age, 20-22 g of body weight were tested. Animals were given compound 1 as a single oral dose of 15.5 mg/kg as a 1.55 mg/mL solution in 20% aqueous hydroxypropyl β-cyclodextrin vehicle using a feeding tube. 0.5, 1, 2, 4 and 7 hours after dosing, systemic blood was drawn from the tail vein into K-EDTA containing tubes. […] At each time point, the median and standard deviation over the 3 animals was calculated to evaluate the potency of the compound.
Blood was also drawn from the tail vein into micronic tubes containing 500 μl of PAXgene solution (PAXgene blood RNA tubes from PreAnalytix). […] The ΔΔCt method (for relative quantification) was used to evaluate regulation of CXCL10 expression by the compound compared to the vehicle control. At each time point, the median and standard deviation over the 3 animals was calculated to evaluate the potency of the compounds.

CCCC[C@@H](CCOC(=O)C(C)C)Nc1nc(NC(=O)C(C)C)ncc1OC [Compound 1]
observed: Induction of endogenous interferon ([1]; liver, single oral dose of 15.5 mg/kg (FIG. 1A)) | Induction of endogenous interferon ([1]; plasma, single oral dose of 15.5 mg/kg (FIG. 1B)) | upregulation of CXCL10 ([2]; blood, single oral dose of 15.5 mg/kg (FIG. 2B)) | upregulation of CXCL10 ([2]; liver, single oral dose of 15.5 mg/kg (FIG. 2A))
